Results on ten molecules are retold here after ChEMBL document CHEMBL1201862, “PubChem BioAssay data set” (2004).

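How tested: cells in 96-well plates exposed to compound for 48 hours at five concentrations. Abbreviation: GI50, concentration required for 50% inhibition of growth.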 Active and inactive are the calls of the source. Cut-off read from the data, not from the text of the source: active = GI50 up to about 1.1 µM and inactive = higher.

Test systems include DLD-1; NCI-H226; SR; M14; A498; SF-295; MOLT-4; SF-268; CCRF-CEM; SNB-78; HCC 2998; HCT-116; DMS-273; COLO 205; RPMI-8226; DMS-114; BT-549; MDA-MB-231; Hs-578T; MDA-N.
Holding throughout (test): NCI anticancer screen, dose series, 48 h

As to `C/C(=N\NC(=O)C(N)=O)c1c(O)cc(C)oc1=O`, the GI50 with DLD-1, with NCI-H226, with SR, in the test with M14, in the test on A498 and with SF-295 was > 100 µM (inactive) throughout. Moreover, the GI50 in the test with MOLT-4, with SF-268, with CCRF-CEM, in the test on SNB-78, in the test on HCC 2998 and in the test with HCT-116 was > 100 µM (inactive) in each case.

In the case of `O=[N+]([O-])c1ccc(-c2ccc(-c3csc(Nc4ccccn4)n3)o2)cc1`, the GI50 in the test on DLD-1 was > 100 µM (inactive); in the test on SR, > 100 µM (inactive); in the test on DMS-273, 35.2 µM (inactive); in the test with M14, 59.6 µM (inactive); with COLO 205 it was > 100 µM (inactive); in the test on SF-295 it was 46.3 µM (inactive). The GI50 with RPMI-8226 is > 100 µM (inactive); in the test with MOLT-4, > 100 µM (inactive); with SF-268, 19.7 µM (inactive); in the test with SNB-78, 28.2 µM (inactive); in the test on HCC 2998, > 100 µM (inactive); with HCT-116 it was 47.9 µM (inactive).

As to `C/C(CC(=O)Nc1cc(Cl)c(Cl)cc1Cl)=N\NC(N)=O`, the GI50 with DLD-1, in the test with NCI-H226, with DMS-273, in the test on M14, in the test with COLO 205 and with SF-295 was > 100 µM (inactive) throughout. The GI50 in the test on RPMI-8226, in the test on MOLT-4, in the test on SF-268, with CCRF-CEM, in the test on DMS-114 and with HCC 2998 was > 100 µM (inactive) throughout. For the same molecule, the GI50 in the test with HCT-116 is > 100 µM (inactive).

Take `CCOC(=O)NC(=O)c1cn(CCCCCCOC(=O)NCCCCCCNC(=O)OCCCCCCn2cc(C(=O)NC(=O)OCC)c(=O)[nH]c2=O)c(=O)[nH]c1=O`: the GI50 in the test with DLD-1, in the test on NCI-H226, in the test with DMS-273, in the test with M14, in the test with COLO 205 and in the test with A498 was > 100 µM (inactive) each time. Further, the GI50 with SF-295 is > 100 µM (inactive); in the test with RPMI-8226, > 100 µM (inactive); with MOLT-4, > 100 µM (inactive); in the test on SF-268, > 100 µM (inactive); in the test with CCRF-CEM it was > 100 µM (inactive); in the test on DMS-114, 67.9 µM (inactive). Moreover, the GI50 with HCC 2998 and in the test with HCT-116 was > 100 µM (inactive) in each case.

As to `CCN1C(=O)N2C(OC)c3ccccc3C(Br)C2(OC)C1=O` (stereo not drawn), the GI50 with DLD-1, in the test with NCI-H226, in the test with SR, in the test on DMS-273, in the test with M14 and in the test on COLO 205 was > 100 µM (inactive) each time. Moreover, the GI50 in the test on A498, in the test on SF-295, in the test with RPMI-8226, with MOLT-4, with CCRF-CEM and in the test with DMS-114 was > 100 µM (inactive) in each case. Also, the GI50 with HCC 2998 was > 100 µM (inactive).

Turning to `C#Cc1ccccc1C(=O)OC`, the GI50 in the test with DLD-1, in the test on NCI-H226, in the test on SR, in the test on DMS-273, in the test on M14 and with COLO 205 was > 100 µM (inactive) in each case. The GI50 was > 100 µM (inactive) in the test on A498; > 100 µM (inactive) in the test on SF-295; > 100 µM (inactive) in the test with RPMI-8226; > 100 µM (inactive) in the test on MOLT-4; > 100 µM (inactive) in the test with CCRF-CEM; 89.9 µM (inactive) with DMS-114. In addition, the GI50 in the test with HCC 2998 and in the test on HCT-116 was > 100 µM (inactive) in each case.

Take `CC12CCCC(C#N)(C1)OC2=O` (stereo not drawn): the GI50 with DLD-1, in the test on NCI-H226, with SR, with DMS-273, with M14 and in the test on A498 was > 100 µM (inactive) each time. Moreover, the GI50 in the test with SF-295, in the test on MOLT-4, in the test on SF-268, in the test with CCRF-CEM, in the test on SNB-78 and in the test with HCT-116 was > 100 µM (inactive) throughout.

On to `COc1ccccc1CNCc1nc2ccccc2[nH]1`, for which the GI50 with NCI-H226, in the test on SR, in the test on BT-549, in the test with M14, in the test on COLO 205 and in the test on A498 was > 100 µM (inactive) throughout. The GI50 in the test with SF-295, with RPMI-8226, with MDA-MB-231, in the test on MOLT-4, in the test with SF-268 and in the test with CCRF-CEM was > 100 µM (inactive) each time. The GI50 in the test on Hs-578T, with MDA-N, in the test on HCC 2998 and in the test with HCT-116 was > 100 µM (inactive) in each case.

Consider `O=C1c2ccccc2-c2nnc(-c3ccc(Cl)cc3)cc21`, for which the GI50 with NCI-H226, in the test on SR, with BT-549, with M14, with COLO 205 and in the test on A498 was > 10 µM (inactive) in each case. Further, the GI50 in the test on SF-295, in the test on RPMI-8226, in the test on MDA-MB-231, in the test with MOLT-4, in the test with SF-268 and in the test on CCRF-CEM was > 10 µM (inactive) in each case. The GI50 in the test with Hs-578T, in the test with MDA-N, in the test with HCC 2998 and in the test with HCT-116 was > 10 µM (inactive) in each case.

Take `C=C1CC(Cn2cc(C)c(=O)[nH]c2=O)(c2ccc(-c3ccccc3)cc2)OC1=O` (stereo not drawn): the GI50 with NCI-H226 was 14.3 µM (inactive); in the test on SR, 0.82 µM (active); with BT-549, 1.46 µM (inactive); with M14 it was 1.1 µM (active); in the test with COLO 205, 0.984 µM (active); with A498, 3.34 µM (inactive). Further, the GI50 with SF-295 was 8.85 µM (inactive); in the test on RPMI-8226, 0.385 µM (active); in the test with MDA-MB-231, 2.22 µM (inactive); in the test on MOLT-4, 0.964 µM (active); in the test on SF-268 it was 2.26 µM (inactive); with CCRF-CEM it was 0.379 µM (active). Further, the GI50 in the test on Hs-578T was 6.55 µM (inactive); in the test on MDA-N, 1.33 µM (inactive); in the test with HCC 2998, 1.86 µM (inactive); with HCT-116, 0.596 µM (active).
